Assay results published in PMC8097335, “A High‐Affinity Calmodulin‐Binding Site in the CyaA Toxin Translocation Domain is Essential for Invasion of Eukaryotic Cells” (Advanced Science, 2021).

What was measured:
[1] = Peptide translocation across droplet interface bilayers (DIB); assay type: in vitro ADME; conditions: TAMRA (dye)-labeled peptide in cis, 15 min; for Peptide in trans droplet, 5 µM holo-CaM in trans: POPC:POPG 9:1 bilayer, CaCl2 2 mM cis vs 0.2 mM trans, epifluorescence, four to seven independent trials
Description: weak fluorescence signal. […]
fluorescence signal. The samples were prepared at the following final concentrations: 10 µM […]
concentration of CDZ wa s 14.5 mM in 100% DMSO. Addition of CDZ at a final concentration of 40 µ M gives a final concentration of less than 0.3 % of DMSO in the […]
Peptide translocation followed by droplet interface bilayerexperiments
An aqueous phase is prepared with buffer D or E and the oil phase is prepared with 15 % (v/v) of chloroform and 0.08%(w/v) of lipids (POP C: POP G at a 9:1molar ratio) in squalene.
A population of droplets is obtained by adding 2 µL of the aqueous phase to 20 µL of the oil phase before briefly shaking the mixture to create an invert emulsion. Two droplet populations were prepared: one containing the TAMRA-labeled peptide in buffer D , the “source”, cis-droplets and the other one containing buffer D or E, or in the presence or in the absence of calmodulin, the “capture”, trans -droplets. […] The fluorescence signals of the “source” and the “capture” droplets were monitored by epifluorescence microscopy for 15 minutes with an Olympus microscope and a MicroMax camera (Princeton Instrument). […]
Quantification of the translocation process is possible thanks to the analysis of the fluorescence images of the droplet pairs. Even if fluorescence is not directly proportional to peptide concentration due to photo-bleaching and small volume variations, one can hypothesize that the fluorescence intensities of the “source” and the “capture” droplets are proportional to the ratio of their concentrations. Moreover, as the initial concentration in the “source” droplet is known and as the total amount of peptide is conserved during the experience, we can write that: CCss (tt = 0) × VVss = CCss (tt ) × VVss + CCcc (tt ) × VVcc , where Ci is the concentration of the droplet i, Vi its volume, which was determined from microscopy images (i=”s” for the source droplet and “c” for the capture droplet). […]
CCcc = CCss (tt = 0) × VVss where F i is the fluorescence intensity measured fordroplet i. […]
analyzed in buffer C. […]

[2] = Peptide titrations by SUVs followed by tryptophan fluorescence (solution-to-membrane partition); assay type: physicochemical; conditions: for Partition coefficient KX: POPC:POPG 8:2 SUVs, buffer A pH 7.4, 25 °C, tryptophan fluorescence ratio 330/370 nm; for Partition coefficient KX / ∆GKx for POPC POPG 8:2: S.D. within ± 10%; for Kd: converted from KX: [W]/KX = Kd, [W] = 55.5 M, read-out: Kd for POPC:POPG 8:2; for ∆GKx for POPC POPG 8:2: ∆GKx = -RT Ln Kx
Description: Lipid vesicles preparation
Small unilamellar vesicles (SUVs) and large unilamellar vesicles (LUVs) were prepared with POPC and POPG at a molar ratio of 8:2, at a lipid concentration of 10 mM in buffer A, as previously described 1. Briefly, SUVs and LUVs were prepared by reverse phase evaporation and filtered through polycarbonate filters of 1 μm and 0.2 μm of pore size diameter to obtain L UV. SUVs were further sonicated. The hydrodynamic diameters and mean net charge of the vesicles were measured by dynamic light scattering (DLS) and electrophoretic mobility, respectively, using a ZetaSizer NanoZS (Malvern Pananalytical , Orsay, France) 11.
Peptide titrations bySUV s and CaM followed by tryptophan fluorescence
Titrations were carried out with a FP-8200 Jasco spectrofluorimeter, equipped with a Pelt ie r - thermostated ETC-272T at 25°C. A bandwidth of 5 nm was used for both excitation and […]
(Hellma, France) with constant stirring. Fluorescence emission was recorded between 300 and […]
400 nm at a scan rate of 100 nm/min, with an excitation wavelength of 280 nm. Fluorescence emission spectra were corrected for SUV or CaM baselines . Fluorescence intensity ratio at 330 nm over 370 nm was use d to measure the partition coefficient (K X) of peptides between the solution andmembrane s 1, 12 and the affinity (K d) of peptides for CaM 13.
Determination of partition coefficient KX and dissociation constant Kd from […]
The partition coefficient KX is defined as the ratio of protein in the lipid (PL) and in buffer […]
(PW) pha se s 12, 14, expressed by: KKXX = [LL ]? , giving[PPWW ] [PPWW ]= [WW], where [W] the […]
concentration of water (55.5 M) and [L] the lipid concentration.
The fraction of peptide partitioned into the membrane, fPL, is equal to:
ffPPLL = [PPLL ][PPTT ]= [PPLL ][PPLL ]+[PPWW ]= 11+([PPWW ])= 11+( [WW]), where PT is the total concentration of peptides [PP TT ]= [PP LL ]+ [PP WW ]. […]
The equations a re fitted to the experimental data using the KaleidaGraph software, providing the KX and K d value s. The partition coefficient is related to the apparent dissociation constant:
KKXX × KKdd = [WW ] and to the free energy of partition ΔG Kx = -RTln(K X), where ΔG is the free energy in kcal/mol, R the gas constant (R = 1.98 x 10-3 kcal/mol/K) and T the temperature i n Kelvin. The free energy of peptide CaM interaction, ∆G Kd, is given by ΔG Kd = RTln(K d).
Sedimentation velocity-Analytical ultracentrifugation (SV -AUC) […]
ratio 1:1 (at 70 µM each). Samples were incubated 2h at 20°C in the ultracentrifuge and, then span at 42,000 rpm in an An-50 Ti rotor. […]

[3] = Membrane permeabilization of ANTS/DPX-loaded LUVs; conditions: ANTS:DPX LUVs POPC:POPG 8:2, 0.45 mM lipid, buffer A pH 7.4, 25 °C, ex 390/em 515 nm; S.D. ± 5%
Description: To monitor membrane permeabilization induced by peptides, ANTS (fluorophore probe) and
DPX (quencher) were encapsulated into large unilamellar vesicles (LUVs). The LUVs were
prepared at a concentration of 10 mM lipid at a POPC:PO PG molar ratio of 8:2 containing 20
mM ANTS and 60 mM DPX. The multilamellar vesicle suspension was extrudedthrough 0.4-
and 0.2 μm polycarbonate filters to produce LUVs. The unencapsulated ANT S a nd DPX we re
removed by gel filtration with a 5 mL Sephadex G -25 column (GE Healthcare Life Sciences ).
For permeabilization assays, LUVs were incubated in buffer A at 0.45 mM lipid
concentration at 25°C in a 101-QS cuvette (Hellma, France) and under constant stirring.
excitation wavelength was set at 390 nm and the emission of ANTS was continuously
measured at 515 nm. The maximum intensity of permeabilization, corresponding to the
maximum recovery of ANTS fluorescence, was measured after addition of 0.1% of Triton
X100. The concentration of membrane-bound peptide s required to induce the recovery of half
intensity of the ANTS fluorescence (C P1/2) was extracted from the permeabilization intensity
a s a function of peptide concentration 1.
LUVs were incubated in buffer B at a lipid concentration of 0.45 mM.
After a few seconds of permeabilization,
holo-Ca M wa s added t o t he solution at a peptide:Ca M molar ratio of 1:3. EDT A wa s
subsequently added in excess to chelate calcium and convert holo -CaM to apo -C a M .

calmodulin (CaM) = biological target: T1, calmodulin (CaM) (Homo sapiens, UniProt P0DP23); assay: Peptide titrations by CaM followed by tryptophan fluorescence, and ITC (Kd for CaM); assay type: binding; conditions: for Kd: holo-CaM, from fluorescent titrations and ITC, 25 °C, average of at least three independent replicates; for Kd / ∆GKd for CaM: S.D. within ± 10%; for ∆GKd for CaM: ΔGKd = RTln(Kd)
T1 construct: made in house; host or cells: E. coli
Description: peptides by CaM and is expressed as follows: 𝐾𝐾 𝑑𝑑 = [𝑃𝑃 ]∗[𝐶𝐶𝐶𝐶𝐶𝐶 ][𝑃𝑃:𝐶𝐶𝐶𝐶𝐶𝐶] , given 𝐾𝐾𝑑𝑑[𝐶𝐶𝐶𝐶𝐶𝐶]= [𝑃𝑃 ][𝑃𝑃 :𝐶𝐶𝐶𝐶𝐶𝐶]and the fraction of complex, fP:CaM, i s: 𝑓𝑓𝑃𝑃:𝐶𝐶𝐶𝐶𝐶𝐶 = [𝑃𝑃 :𝐶𝐶𝐶𝐶𝐶𝐶 ][𝑃𝑃:𝐶𝐶𝐶𝐶𝐶𝐶]+[𝑃𝑃]= 11+ [𝑃𝑃 ]= 11+ 𝐾𝐾𝑑𝑑.

[4] = Synchrotron radiation circular dichroism, alpha-helical content (Bestsel); assay type: physicochemical; conditions: 25 °C, far-UV SRCD; for alpha-helical content, TFE 20%: 20% TFE; for alpha-helical content, POPC:POPG 8:2: SUVs POPC:POPG 8:2 at 2 mM lipid; for alpha-helical content, Solution: buffer A
Description: Synchrotron Radiation Circular Dichroism
Synchrotron radiation circular dichroism (SRCD) was performed on the DISCO beamline of the synchrotron SOLEIL (Saint -Aubin, France) . Spectra were recorded at 25°C with an integration time of 1.2 s and a bandwidth of 1 nm with a resolution of 1 nm. A far-UV spectrum represents the average of four individual scans. QS cells (Hellma, France) with a pathlength of 20, 50, 100 or 200 μm (depending on final protein concentrations) were used to record spectra in the fa r -UV range (from 190 to 250 nm). CD spectra of peptides and proteins were measured in buffers A and B, 20% of trifluoroethanol (TFE), in the presence of SUVs (POPC :PO PG 8: 2) or Ca M. Secondary structure content was estimated using Bestsel software […]
Table S8: Estimation of the α -helical content of P454-derived peptides. The secondary structure content is estimated using the on-line Bestsel software 17 available at http://bestsel.elte.hu/index.php. […]
peptide in buffer A, in 20% TFE and in the presence of POPC POPG (molar ratio 8:2) at 2 mM lipid concentration. The far -UV CD spectra of several P454-derived peptides are shown […]

Compound	Peptide in trans droplet, 5 µM holo-CaM in trans [1]	Partition coefficient KX [2]	Peptide in trans droplet, 100 µM CaM in trans ([1]; calcium gradient 2 mM cis vs 0.2 mM trans, five to seven independent trials)	CP1/2, peptide concentration required to induce recovery of 50% of ANTS fluorescence intensity upon LUVs permeabilization [3]	Kd [2]	∆GKx for POPC POPG 8:2 [2]	Kd (calmodulin (CaM))	∆GKd for CaM (calmodulin (CaM))	alpha-helical content, TFE 20% [4]	alpha-helical content, POPC:POPG 8:2 [4]	alpha-helical content, Solution [4]	Decrease of affinity for CaM relative to P454 (calmodulin (CaM); from Table S3)
CC[C@H](C)[C@H](NC(=O)[C@H](CCCCN)NC(=O)[C@H](Cc1c[nH]c2ccccc12)NC(=O)[C@H](CC(C)C)NC(=O)[C@H](CC(C)C)NC(=O)[C@H](CC(=O)O)NC(=O)[C@@H](NC(=O)[C@H](CCCNC(=N)N)NC(=O)[C@H](CCC(=O)O)NC(=O)[C@H](CCCNC(=N)N)NC(=O)[C@H](CC(=O)O)NC(=O)[C@H](CC(C)C)NC(C)=O)[C@@H](C)CC)C(=O)N[C@@H](C)C(=O)N[C@@H](CCCNC(=N)N)C(=O)N[C@@H](C)C(=O)NCC(=O)N[C@@H](C)C(=O)N[C@@H](CCCNC(=N)N)C(=O)N[C@@H](CO)C(=O)N[C@@H](C)C(=O)N[C@H](C(=O)NCC(N)=O)C(C)C [H-helix, reference compound]	do not accumulate	–	–	–	–	–	–	–	–	–	–	–
Ac-ASAHWGQEALQGAQAVAAAQELVHAIALMTQ-NH2 [P454 R12E]	do not accumulate	80 ×10^3	significant accumulation	–	–	–	–	–	–	–	–	–
Ac-ASAHWGQRALQGAQAVAAAQRLVHALALMTQ-NH2 [P454 I479L]	–	700 ×10^3	–	0.04 µM	80 µM	-7.9 kcal/mol	0.06 µM	-9.8 kcal/mol	51 ± 1%	51 ± 5%	13 ± 1%	–
Ac-ASAHWGQRALQGAQAVAAAQRLVHAVALMTQ-NH2 [P454 I479V]	–	560 ×10^3	–	0.09 µM	100 µM	-7.8 kcal/mol	0.11 µM	-9.4 kcal/mol	47 ± 6%	37 ± 2%	2 ± 1%	–
Ac-ASAHWGQRALQGAQAVAAAQRLVSAAALMTQ-NH2 [P454 H477S-I479A]	–	105 ×10^3	–	1.88 µM	530 µM	-6.8 kcal/mol	1.19 µM	-8.0 kcal/mol	51 ± 4%	27 ± 3%	2 ± 2%	≈ 20 fold
Ac-ASAHWGQRALQGAQAVAAAQRLVSAIALMTQ-NH2 [P454 H477S]	–	340 ×10^3	–	0.25 µM	160 µM	-7.5 kcal/mol	0.19 µM	-9.1 kcal/mol	40 ± 1%	20 ± 2%	4 ± 2%	–
